The test system of data set [1] is parsley cultured cells. Nature of the data set: Activity of inducing disease resistance: elicitor responsiveness of parsley cultured cells, phytoalexin detection by fluorescence. It counts as cell-based. The following applies: for Elicitor responsiveness of parsley cultured cells (in words): each compound alone; for Relative fluorescence: 0.5 μM. As to the method:
The activity of inducing disease resistance in plant of compound 1 and compound 2 according to the present invention was also evaluated according to the method of Siegrist, J. et al. The results are shown in Table 9.
The activity of inducing disease resistance in plant of each of compound 1 and compound 2 was evaluated in the same manner as in Evaluation Example 1 by adopting the method practiced in Evaluation Example 1, i.e., the method in which the elicitor responsiveness of parsley cultured cells was measured by the detection of phytoalexin using fluorescence.
The activity of inducing resistance to plant diseases of each of compound 3 and compound 4 was evaluated in the same manner as in Evaluation Example 1 by adopting the method practiced in Evaluation Example 1, i.e., the method in which the elicitor responsiveness of parsley cultured cells was measured by the detection of phytoalexin using fluorescence.

Another data set is described as follows: Solubility in solvents. Type of data set: physicochemical.
The test system of data set [2] is cucumber bacterial blight bacterium (Pseudomonas syringae pv. lachrymans). Nature of the data set: Evaluation Example 2: paper disc test for direct antimicrobial activity against cucumber bacterial blight bacterium. It counts as cell-based. The following applies: tested as 3:2 mixture, 60 + 40 ppm. On the procedure: That is, cucumber bacterial blight bacterium was mixed with a potato semisynthetic medium (a decoction consisting of 300 g of potato and 1 L of distilled water, calcium nitrate tetrahydrate 0.5 g, disodium hydrogenphosphate dodecahydrate 2 g, peptone 5 g, sucrose 20 g, powdered agar 15 g) maintained at 45° C., in a proportion of 1×10^8 CFU/mL, and the resulting mixture was dispensed in 20 mL aliquots into sterilized Petri dishes. After the solidification of the medium, 50 μL of a solution obtained by dissolving a 3:2 mixture of compounds 1 and 2 in dimethyl sulfoxide to a concentration of 100 μg/mL was infiltrated into a paper disc with a diameter of 8 mm, and then the paper disc was allowed to stand on the medium. After 48 hours of cultivation at 25° C. in the dark, the activity was evaluated on the basis of the presence of an inhibition zone around the periphery

For data set [3], the system named is parsley cultured cells. Nature of the data set: Activity of inducing disease resistance: elicitor responsiveness of parsley cultured cells, phytoalexin detection by fluorescence. The following applies: Evaluation Example 1; tested as 3:2 mixture. It counts as cell-based.
A further data set concerns Gram-negative bacteria. The following applies: patent document 3, non-patent documents 4 and 5; cited from earlier work.
Data set [4] deals with cucumber bacterial blight bacterium. The following applies: patent document 3; cited from earlier work.
Data set [5] has as its system Fusarium wilt of cucumber fungus. The following applies: patent document 3; cited from earlier work.
Where [6] appears, read: Evaluation Example 7, elicitor No.
Setting [7] is: Evaluation Example 7, elicitor Yes.
The mark [8] stands for this setting: in ethyl acetate, chloroform and hexane.
Where [9] appears, read: in methanol, butanol, isopropyl alcohol and dimethyl sulfoxide.
Setting [10] is: Evaluation Example 6, elicitor treatment No.
Setting [11] is: Evaluation Example 6, elicitor treatment Yes.

Where a SMILES comes first, the peptide text is derived from it. Bridges are numbered along the chain shown (N, C = ends). The star is where a group is joined. ξ: configuration not given here. Pentadecanoyl(3ξ-OH,15-Gua) = N=C(N)NCCCCCCCCCCCCC(O)CC(=O)*

As to `CC(N)C(=O)OC(C)C1NC(=O)C(C(C)C)NC(=O)C(C(C)C)NC(=O)C(NC(=O)CC(O)CCCCCCCCCCCCNC(=N)N)C(C)OC(=O)C(C)NC(=O)C(CCC(N)=O)NC1=O` (stereo not drawn) [Compound 4] ({Pentadecanoyl(3ξ-OH,15-Gua)}-TVVT(Ala)QA; ester 1-C; configuration not given here), the “Elicitor responsiveness of parsley cultured cells (in words)” value (from here on “Elicitor responsiveness”) in the data set with parsley cultured cells [1] (Evaluation Example 7) is on record as “improve the elicitor responsiveness”. Besides, the Relative fluorescence with parsley cultured cells [1] (setting [6]) was found to be 0.7; in the data set on parsley cultured cells [1] (setting [7]), 504.8. The results for the Solubility entry in the data set “Solubility in solvents” (setting [8]) and in “Solubility in solvents” (setting [9]) were “insoluble” and “readily soluble”, respectively.

For the compound `CC1NC(=O)C(CC(N)=O)NC(=O)C(C(C)O)NC(=O)C(C(C)C)NC(=O)C(C(C)C)NC(=O)C(NC(=O)CC(O)CCCCCCCCCCCCNC(=N)N)C(C)OC1=O` (stereo not drawn) [Compound 1, Fusaricidin A] ({Pentadecanoyl(3ξ-OH,15-Gua)}-TVVTNA; ester 1-C; configuration not given here), the “Elicitor responsiveness” value is listed as “improves the elicitor responsiveness” in the data set with parsley cultured cells [1] (Evaluation Example 6) and “improve the elicitor responsiveness” in the data set with parsley cultured cells [3]. The values for the Relative fluorescence in the data set with parsley cultured cells [1] (setting [10]) and in the data set on parsley cultured cells [1] (setting [11]) were 98.5 and 1000, respectively. Besides, the “Direct antimicrobial activity against cucumber bacterial blight bacterium (in words)” value in data set [2] is listed as “do not exhibit direct antimicrobial activity”. For the same compound, the “Antimicrobial activity against Gram-negative bacteria” value in the data set with Gram-negative bacteria was “inactive”. In addition, in data set [4], the “Antimicrobial activity against cucumber bacterial blight bacterium” value was “inactive”. For the same compound, the “Antimicrobial activity against Fusarium wilt of cucumber fungus” value in data set [5] is “no antimicrobial activity”.

As for `CC(N)C(=O)OC(C)C1NC(=O)C(C(C)C)NC(=O)C(C(C)C)NC(=O)C(NC(=O)CC(O)CCCCCCCCCCCCNC(=N)N)C(C)OC(=O)C(C)NC(=O)C(CC(N)=O)NC1=O` (stereo not drawn) [Compound 3] ({Pentadecanoyl(3ξ-OH,15-Gua)}-TVVT(Ala)NA; ester 1-C; configuration not given here), the “Elicitor responsiveness” value in the data set with parsley cultured cells [1] (Evaluation Example 7) is listed as “improve the elicitor responsiveness”. Besides, the Relative fluorescence is 3.1 with parsley cultured cells [1] (setting [6]) and 222.7 in the data set with parsley cultured cells [1] (setting [7]). In addition, the results for the Solubility entry in the data set “Solubility in solvents” (setting [8]) and in the data set “Solubility in solvents” (setting [9]) were “insoluble” and “readily soluble”, respectively.

For the compound `CC1NC(=O)C(CCC(N)=O)NC(=O)C(C(C)O)NC(=O)C(C(C)C)NC(=O)C(C(C)C)NC(=O)C(NC(=O)CC(O)CCCCCCCCCCCCNC(=N)N)C(C)OC1=O` (stereo not drawn) [Compound 2, Fusaricidin B] ({Pentadecanoyl(3ξ-OH,15-Gua)}-TVVTQA; ester 1-C; configuration not given here), the “Elicitor responsiveness” value is given as “improves the elicitor responsiveness” with parsley cultured cells [1] (Evaluation Example 6) and “improve the elicitor responsiveness” in the data set with parsley cultured cells [3]. Further, the Relative fluorescence with parsley cultured cells [1] (setting [10]) worked out at 100.7; in the data set with parsley cultured cells [1] (setting [11]), 1000. Moreover, the “Direct antimicrobial activity against cucumber bacterial blight bacterium (in words)” value in data set [2] is given as “do not exhibit direct antimicrobial activity”. For the same compound, the “Antimicrobial activity against Gram-negative bacteria” value in the data set on Gram-negative bacteria was “inactive”.

Source of the values: US7935335B2, “Strains belonging to the genus Paenibacillus and method of controlling plant disease by using these strains or culture thereof” (Kaken Pharmaceutical Co., Ltd., priority 2004, dated 2011).
